In ChEMBL document CHEMBL3885861, “Open TG-GATES”:

Species: Rattus norvegicus
Experiment: Open TG-GATES - Regimen: Daily Repeat
Format: toxicity, organism-based, Sprague-Dawley
Design: regimen Daily Repeat, gender Male, age 6 weeks
Details: in vivo, po, route gavage; for APTT / Bas / Eos / Fbg / Hb / Ht / Lym / MCH / MCHC / MCV / Mono / Neu / PT / Plat / RBC / Ret / WBC: tissue Blood; for KIDNEY_L / KIDNEY_R / KIDNEY_TOTAL: tissue Kidney; for LIVER: tissue Liver; for A/G / ALP / ALT / AST / BUN / CRE / Ca / Cl / DBIL / GLC / IP / K / LDH / Na / PL / RALB / TBIL / TC / TG / TP / gamma-GTP: tissue Plasma
[1] = 0 mg/kg, 72 h, dose level Control, time 3 day
[2] = 0 mg/kg, […], dose level Control, time 7 day
[3] = 0 mg/kg, […], dose level Control, time 14 day
[4] = 0 mg/kg, […], dose level Control, time 28 day
[5] = 10 mg/kg, 72 h, dose level Low, time 3 day
[6] = 10 mg/kg, […], dose level Low, time 7 day
[7] = 10 mg/kg, […], dose level Low, time 14 day
[8] = 10 mg/kg, […], dose level Low, time 28 day

## NC(=O)N/N=C/c1ccc([N+](=O)[O-])o1 [NITROFURAZONE]
[1]
  TERMINAL_BW: 218.5 g
  APTT: 14.6 s
  Bas: 0%
  Eos: 0.6%
  Fbg: 279.4 mg/dL
  Hb: 12.9 g/dL
  Ht: 39.6%
  Lym: 81%
  MCH: 21 pg
  MCHC: 32.6%
  MCV: 64.4 fL
  Mono: 2.6%
  Neu: 15%
  PT: 14.5 s
  Plat: 111.2 x10_4/uL
  RBC: 614.6 x10_4/ul
  Ret: 8.9%
  WBC: 76.9 x10_2/uL
  KIDNEY_L: 0.9 g
  KIDNEY_R: 0.9 g
  KIDNEY_TOTAL: 1.7 g
  LIVER: 9.8 g
  A/G: 0.9
  ALP: 2147 IU/L
  ALT: 51.2 IU/L
  AST: 78.2 IU/L
  BUN: 16 mg/dL
  CRE: 0.2 mg/dL
  Ca: 11.4 mg/dL
  Cl: 106.2 meq/L
  DBIL: 0.016 mg/dL
  GLC: 178.2 mg/dL
  IP: 7.9 mg/dL
  K: 4.4 meq/L
  LDH: 79 IU/L
  Na: 141.6 meq/L
  PL: 161.2 mg/dL
  RALB: 2.6 g/dL
  TBIL: 0.046 mg/dL
  TC: 92.4 mg/dL
  TG: 100.8 mg/dL
  TP: 5.6 g/dL
  gamma-GTP: 1 IU/L
[2]
  TERMINAL_BW: 259.3 g
  APTT: 16.9 s
  Bas: 0.2%
  Eos: 1%
  Fbg: 268 mg/dL
  Hb: 13.4 g/dL
  Ht: 39.9%
  Lym: 75%
  MCH: 21.1 pg
  MCHC: 33.5%
  MCV: 62.8 fL
  Mono: 3.2%
  Neu: 20.2%
  PT: 14.4 s
  Plat: 112.6 x10_4/uL
  RBC: 636.4 x10_4/ul
  Ret: 7%
  WBC: 96.1 x10_2/uL
  KIDNEY_L: 1.1 g
  KIDNEY_R: 1.1 g
  KIDNEY_TOTAL: 2.1 g
  LIVER: 12.2 g
  A/G: 0.8
  ALP: 1832.4 IU/L
  ALT: 45.8 IU/L
  AST: 69 IU/L
  BUN: 15.6 mg/dL
  CRE: 0.2 mg/dL
  Ca: 11.2 mg/dL
  Cl: 104 meq/L
  DBIL: 0.022 mg/dL
  GLC: 196.2 mg/dL
  IP: 7.5 mg/dL
  K: 3.6 meq/L
  LDH: 69 IU/L
  Na: 141.6 meq/L
  PL: 146.4 mg/dL
  RALB: 2.6 g/dL
  TBIL: 0.054 mg/dL
  TC: 76.2 mg/dL
  TG: 93.2 mg/dL
  TP: 5.6 g/dL
  gamma-GTP: 1 IU/L
[3]
  TERMINAL_BW: 324.7 g
  APTT: 14.3 s
  Bas: 0.2%
  Eos: 0.8%
  Fbg: 303 mg/dL
  Hb: 13.6 g/dL
  Ht: 41.4%
  Lym: 77.8%
  MCH: 20.7 pg
  MCHC: 32.8%
  MCV: 63.2 fL
  Mono: 2%
  Neu: 18.2%
  PT: 14.4 s
  Plat: 121.6 x10_4/uL
  RBC: 657.2 x10_4/ul
  Ret: 5.7%
  WBC: 91.3 x10_2/uL
  KIDNEY_L: 1.3 g
  KIDNEY_R: 1.2 g
  KIDNEY_TOTAL: 2.5 g
  LIVER: 15.1 g
  A/G: 0.8
  ALP: 1410 IU/L
  ALT: 43.4 IU/L
  AST: 65.6 IU/L
  BUN: 17.4 mg/dL
  CRE: 0.2 mg/dL
  Ca: 11 mg/dL
  Cl: 105.4 meq/L
  DBIL: 0.012 mg/dL
  GLC: 195.4 mg/dL
  IP: 7.5 mg/dL
  K: 4 meq/L
  LDH: 70 IU/L
  Na: 142.8 meq/L
  PL: 159.8 mg/dL
  RALB: 2.6 g/dL
  TBIL: 0.046 mg/dL
  TC: 79.2 mg/dL
  TG: 119 mg/dL
  TP: 5.8 g/dL
  gamma-GTP: 1.2 IU/L
[4]
  TERMINAL_BW: 406 g
  APTT: 16.2 s
  Bas: 0%
  Eos: 1.2%
  Fbg: 275.6 mg/dL
  Hb: 15 g/dL
  Ht: 44.5%
  Lym: 77%
  MCH: 19.5 pg
  MCHC: 33.7%
  MCV: 58 fL
  Mono: 1.8%
  Neu: 19.4%
  PT: 14.9 s
  Plat: 105 x10_4/uL
  RBC: 767.2 x10_4/ul
  Ret: 2.6%
  WBC: 74.7 x10_2/uL
  KIDNEY_L: 1.5 g
  KIDNEY_R: 1.3 g
  KIDNEY_TOTAL: 2.8 g
  LIVER: 16.8 g
  A/G: 0.8
  ALP: 1109.8 IU/L
  ALT: 38 IU/L
  AST: 62.4 IU/L
  BUN: 16.6 mg/dL
  CRE: 0.2 mg/dL
  Ca: 10.9 mg/dL
  Cl: 104 meq/L
  DBIL: 0.014 mg/dL
  GLC: 192 mg/dL
  IP: 6.9 mg/dL
  K: 3.4 meq/L
  LDH: 61.2 IU/L
  Na: 145.2 meq/L
  PL: 139.6 mg/dL
  RALB: 2.7 g/dL
  TBIL: 0.068 mg/dL
  TC: 60.6 mg/dL
  TG: 145.4 mg/dL
  TP: 6.1 g/dL
  gamma-GTP: 0.8 IU/L
[5]
  TERMINAL_BW: 217.9 g
  APTT: 14.6 s
  Bas: 0.2%
  Eos: 0.8%
  Fbg: 265.6 mg/dL
  Hb: 12.9 g/dL
  Ht: 39.6%
  Lym: 77.8%
  MCH: 22.1 pg
  MCHC: 32.6%
  MCV: 67.8 fL
  Mono: 3.2%
  Neu: 17.8%
  PT: 14.4 s
  Plat: 118.7 x10_4/uL
  RBC: 584.8 x10_4/ul
  Ret: 9.3%
  WBC: 97.1 x10_2/uL
  KIDNEY_L: 1 g
  KIDNEY_R: 1 g
  KIDNEY_TOTAL: 1.9 g
  LIVER: 10.7 g
  A/G: 0.9
  ALP: 1665.4 IU/L
  ALT: 49 IU/L
  AST: 74.6 IU/L
  BUN: 15 mg/dL
  CRE: 0.2 mg/dL
  Ca: 11.3 mg/dL
  Cl: 105.6 meq/L
  DBIL: 0.018 mg/dL
  GLC: 189 mg/dL
  IP: 7.9 mg/dL
  K: 4.3 meq/L
  LDH: 69.6 IU/L
  Na: 141.4 meq/L
  PL: 151.8 mg/dL
  RALB: 2.6 g/dL
  TBIL: 0.048 mg/dL
  TC: 85 mg/dL
  TG: 97.8 mg/dL
  TP: 5.5 g/dL
  gamma-GTP: 1 IU/L
[6]
  TERMINAL_BW: 257.3 g
  APTT: 16.7 s
  Bas: 0%
  Eos: 1%
  Fbg: 257 mg/dL
  Hb: 13.2 g/dL
  Ht: 39.3%
  Lym: 79.2%
  MCH: 21.5 pg
  MCHC: 33.7%
  MCV: 64 fL
  Mono: 2.4%
  Neu: 16.6%
  PT: 14.3 s
  Plat: 113.7 x10_4/uL
  RBC: 615 x10_4/ul
  Ret: 7.1%
  WBC: 83.6 x10_2/uL
  KIDNEY_L: 1.1 g
  KIDNEY_R: 1.1 g
  KIDNEY_TOTAL: 2.2 g
  LIVER: 12.9 g
  A/G: 0.9
  ALP: 1835.8 IU/L
  ALT: 44.6 IU/L
  AST: 70.8 IU/L
  BUN: 15.6 mg/dL
  CRE: 0.2 mg/dL
  Ca: 11.1 mg/dL
  Cl: 104 meq/L
  DBIL: 0.016 mg/dL
  GLC: 184 mg/dL
  IP: 7.7 mg/dL
  K: 3.7 meq/L
  LDH: 67 IU/L
  Na: 141.4 meq/L
  PL: 156.4 mg/dL
  RALB: 2.6 g/dL
  TBIL: 0.05 mg/dL
  TC: 83.4 mg/dL
  TG: 102 mg/dL
  TP: 5.6 g/dL
  gamma-GTP: 1 IU/L
[7]
  TERMINAL_BW: 318.7 g
  APTT: 15.2 s
  Bas: 0.2%
  Eos: 0.8%
  Fbg: 353 mg/dL
  Hb: 13.5 g/dL
  Ht: 40.9%
  Lym: 80%
  MCH: 20.2 pg
  MCHC: 33%
  MCV: 61.3 fL
  Mono: 2%
  Neu: 14.4%
  PT: 14.7 s
  Plat: 111.7 x10_4/uL
  RBC: 666.6 x10_4/ul
  Ret: 4.5%
  WBC: 106.9 x10_2/uL
  KIDNEY_L: 1.3 g
  KIDNEY_R: 1.2 g
  KIDNEY_TOTAL: 2.5 g
  LIVER: 15.3 g
  A/G: 0.8
  ALP: 1653.4 IU/L
  ALT: 47.4 IU/L
  AST: 83.6 IU/L
  BUN: 17.8 mg/dL
  CRE: 0.2 mg/dL
  Ca: 10.9 mg/dL
  Cl: 105 meq/L
  DBIL: 0.014 mg/dL
  GLC: 185.8 mg/dL
  IP: 7.3 mg/dL
  K: 4.1 meq/L
  LDH: 92.4 IU/L
  Na: 142.4 meq/L
  PL: 156.2 mg/dL
  RALB: 2.7 g/dL
  TBIL: 0.044 mg/dL
  TC: 77.8 mg/dL
  TG: 123.8 mg/dL
  TP: 5.8 g/dL
  gamma-GTP: 1.4 IU/L
[8]
  TERMINAL_BW: 442.9 g
  APTT: 16.4 s
  Bas: 0%
  Eos: 1.4%
  Fbg: 292.6 mg/dL
  Hb: 14.7 g/dL
  Ht: 43.8%
  Lym: 76.4%
  MCH: 19.3 pg
  MCHC: 33.6%
  MCV: 57.6 fL
  Mono: 2.2%
  Neu: 19.4%
  PT: 14.8 s
  Plat: 94.4 x10_4/uL
  RBC: 761 x10_4/ul
  Ret: 3%
  WBC: 94.8 x10_2/uL
  KIDNEY_L: 1.5 g
  KIDNEY_R: 1.5 g
  KIDNEY_TOTAL: 3.1 g
  LIVER: 18.6 g
  A/G: 0.8
  ALP: 1381.2 IU/L
  ALT: 39.4 IU/L
  AST: 64 IU/L
  BUN: 17.4 mg/dL
  CRE: 0.2 mg/dL
  Ca: 10.8 mg/dL
  Cl: 103.6 meq/L
  DBIL: 0.014 mg/dL
  GLC: 187.2 mg/dL
  IP: 6.6 mg/dL
  K: 3.6 meq/L
  LDH: 47.8 IU/L
  Na: 143 meq/L
  PL: 154.2 mg/dL
  RALB: 2.7 g/dL
  TBIL: 0.062 mg/dL
  TC: 78 mg/dL
  TG: 133.6 mg/dL
  TP: 6.2 g/dL
  gamma-GTP: 1 IU/L
